Measurements as given in US20020159969A1, “Small peptide-based therapeutics for reversing cancer-associated MUC-1 mucin-induced immunosuppression” (priority 1997, published 2002).

What was measured:
T-cells = assay: Relief of 100 mer MUC1 peptide-induced suppression/anergy of T-cell proliferation (allo-PBLs, 3H-thymidine incorporation); format: cell-based, human; conditions: 100 mer MUC1 peptide 25 μg/ml; 16 mer at varying doses; FIG. 3
Experimental: In the experiment of FIG. 3, purified T-cells (10^6/ml) were cultured in AIM V medium with allo-PBLs in the presence (100 mer MUC1 peptide group; right panel) or absence (media group; left panel) of 100 mer MUC1 synthetic peptide (25 μg/ml) for 6-7 days. At this time, the T-cells were harvested and plated in 96 well flat bottom plates at 10^5/well with allo-PBLs (10^5/well) in the presence or absence of 100 mer MUC1 peptide (25 μg/ml), and the 16 mer MUC1 peptide (less than one tandem repeat) at varying doses. The wells were pulsed with ^3H-thymidine (1 μCi/well) on the fourth day of culture followed by harvesting on the fifth day. ^3H-Thymidine incorporation into the DNA of proliferating T-cells was measured by liquid scintillation counter. Data are shown as mean CPM±standard deviations. Each group was set up in replicates of 3 wells.

T cells = assay: T cell proliferation assay with allo PBLs (3H-thymidine incorporation) with synthetic MUC-1 tandem repeat peptides; format: cell-based, human; conditions: peptide 10 μg/ml, 6-7 days then 5 days, FIG. 2
Experimental: Enriched T cell populations were purified from buffy coats obtained from normal red cross donors using nylon wool columns by previously reported procedures. […] For the allo MLR, mitomycin C treated allogeneic PBLs were co-cultured with purified T cells in the presence or absence of affinity purified MUC-1 mucin or control OSM. In most of the experiments, the T cells were cultured 6-7 days in AIM V medium in the absence or presence of MUC-1, MUC-1 derivative or OSM at the indicated concentration. After this time, the T cells were harvested, washed and cultured as indicated.
For the experiment depicted in FIG. 2, purified T cells (10^6/ml) were cultured in AIM V medium with allo PBLs in the absence or presence of MUC-1, MUC-1 derivative or OSM 10 μg/ml for 6-7 days. T cells were harvested and plated in 96 well flat bottom plates at 10^5/well with allo PBLs (10^5/well), in the presence or absence of affinity purified MUC-1, MUC-1 derivative or OSM. Control cultures were treated with either 50 U/ml IL-2 or 1 μg/ml anti-CD28 Mab. After 4 days of culture, ^3H-thymidine (1 μCi/well) was added. The cells were harvested on the fifth day and ^3H-thymidine incorporation was measured by liquid scintillation.

human T-cell cultures = assay: Mixed lymphocyte reaction / T-cell proliferation (3H-thymidine incorporation) with affinity purified MUC-1 mucin; format: cell-based; conditions: purified MUC-1 mucin added to human T-cell cultures; FIG. 1
Experimental: The mixed lymphocyte reaction is conducted by mixing the lymphocytes of HLA disparate individuals in in vitro tissue cultures. The “responder population” in this experiment is purified T-cells from one population, while the “stimulator” population in this experiment is the peripheral blood lymphocytes obtained from an HLA mismatched individual donor. The two cell populations were mixed and cultured either in the presence or absence of various doses of B27.29 affinity purified MUC-1 mucin that was purified from a pleural effusion fluid. The results of this experiment are depicted in FIG. 1.
In the experiment depicted in FIG. 1, 10^6 T-cells were cultured in AIM V medium in presence of 10^6 allo-PBLs (mitomycin C treated) with or without the indicated concentration of affinity purified MUC1 or OSM for 6-7 days. At this time the T-cells were harvested and plated at 10^5/well in 96 well flat bottom plates and the polyclonal stimuli allo-PBLs (10^5/well), or anti-CD3 (1 μg/ml) or PHA (0.2 μg/ml), in presence or absence of MUC1 or OSM for 4 days. Each group was set up in a replicate of five wells. ^3H-thymidine (1 μCi/well) was added and the culture plates were further incubated for 18-24 h before harvesting. ^3H-thymidine incorporation into the DNA of proliferating T-cells was measured by liquid scintillation counting. […]

Substance	reversal of suppression/anergy induced by a MUC-1 100-mer peptide (T-cells)	level of T cell proliferation relative to control (T cells)	T-cell proliferation against allo-antigenic (or mitogenic) stimulus in vitro (human T-cell cultures)
GVTSAPDTRPAPGSTA [BP16]	reverses	not observed	–
purified human MUC-1 mucin: B27.29 affinity purified MUC-1 mucin glycoprotein from cancer patient pleural effusion/ascites fluid	–	–	strongly inhibits
